Experimental data taken from patent publication US20250215029A1 (Recludix Pharma, Inc., priority 2022, published 2025).
Where two headings read alike, the source gives them in different places.

How the values were obtained:
pY705-STAT3 in PBMC = target: T1, pY705-STAT3 in PBMC (Homo sapiens, UniProt P40763); test: MSD-pSTAT-PBMC Assay (pSTAT3, IL-6 stimulated); assay type: cell-based; details: PBMC, compound 3 hrs, then 10 ng/mL IL-6 for 10 min
T1 construct: Cryopreserved Peripheral Blood Mononuclear Cells (PBMC) are from AllCells; host or cells: cryopreserved PBMC
T1 sequence (P40763 whole entry): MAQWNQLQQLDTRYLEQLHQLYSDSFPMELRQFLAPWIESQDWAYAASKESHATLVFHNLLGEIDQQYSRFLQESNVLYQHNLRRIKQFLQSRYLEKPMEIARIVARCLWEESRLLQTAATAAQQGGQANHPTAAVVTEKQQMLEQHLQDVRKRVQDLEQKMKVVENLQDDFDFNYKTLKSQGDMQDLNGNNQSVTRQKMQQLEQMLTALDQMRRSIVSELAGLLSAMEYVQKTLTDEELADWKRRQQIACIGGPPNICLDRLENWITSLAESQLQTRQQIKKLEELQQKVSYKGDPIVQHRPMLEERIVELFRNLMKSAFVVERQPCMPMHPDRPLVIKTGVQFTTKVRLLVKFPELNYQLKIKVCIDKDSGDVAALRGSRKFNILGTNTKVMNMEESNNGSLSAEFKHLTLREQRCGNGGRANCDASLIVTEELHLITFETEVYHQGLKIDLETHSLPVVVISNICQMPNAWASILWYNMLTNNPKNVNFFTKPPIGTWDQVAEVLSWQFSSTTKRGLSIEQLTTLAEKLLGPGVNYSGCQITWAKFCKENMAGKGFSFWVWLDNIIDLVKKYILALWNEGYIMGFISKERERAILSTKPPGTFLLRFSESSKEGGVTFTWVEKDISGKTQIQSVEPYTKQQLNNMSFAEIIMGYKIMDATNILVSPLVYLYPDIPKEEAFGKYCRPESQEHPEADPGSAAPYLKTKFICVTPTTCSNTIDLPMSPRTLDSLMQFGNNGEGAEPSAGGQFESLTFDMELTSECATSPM
How it was run: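 pY705-STAT3 was detected electrochemiluminescently on total-STAT3 capture plates, using lysates of human PBMCs given compound for 3 h and then IL-6 (10 ng/mL, 10 min). Values were background-subtracted against unstimulated wells and set relative to DMSO. IC50 was fitted with variable slope.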

pY641-STAT6 in PBMC = target: T2, pY641-STAT6 in PBMC (Homo sapiens, UniProt P42226); test: MSD-pSTAT-PBMC Assay (pSTAT6, IL-4 stimulated); assay type: cell-based; details: compound 3 hrs, then 1 ng/mL IL-4 for 10 min
T2 construct: Cryopreserved Peripheral Blood Mononuclear Cells (PBMC) are from AllCells; host or cells: cryopreserved PBMC
T2 sequence (P42226 1-847): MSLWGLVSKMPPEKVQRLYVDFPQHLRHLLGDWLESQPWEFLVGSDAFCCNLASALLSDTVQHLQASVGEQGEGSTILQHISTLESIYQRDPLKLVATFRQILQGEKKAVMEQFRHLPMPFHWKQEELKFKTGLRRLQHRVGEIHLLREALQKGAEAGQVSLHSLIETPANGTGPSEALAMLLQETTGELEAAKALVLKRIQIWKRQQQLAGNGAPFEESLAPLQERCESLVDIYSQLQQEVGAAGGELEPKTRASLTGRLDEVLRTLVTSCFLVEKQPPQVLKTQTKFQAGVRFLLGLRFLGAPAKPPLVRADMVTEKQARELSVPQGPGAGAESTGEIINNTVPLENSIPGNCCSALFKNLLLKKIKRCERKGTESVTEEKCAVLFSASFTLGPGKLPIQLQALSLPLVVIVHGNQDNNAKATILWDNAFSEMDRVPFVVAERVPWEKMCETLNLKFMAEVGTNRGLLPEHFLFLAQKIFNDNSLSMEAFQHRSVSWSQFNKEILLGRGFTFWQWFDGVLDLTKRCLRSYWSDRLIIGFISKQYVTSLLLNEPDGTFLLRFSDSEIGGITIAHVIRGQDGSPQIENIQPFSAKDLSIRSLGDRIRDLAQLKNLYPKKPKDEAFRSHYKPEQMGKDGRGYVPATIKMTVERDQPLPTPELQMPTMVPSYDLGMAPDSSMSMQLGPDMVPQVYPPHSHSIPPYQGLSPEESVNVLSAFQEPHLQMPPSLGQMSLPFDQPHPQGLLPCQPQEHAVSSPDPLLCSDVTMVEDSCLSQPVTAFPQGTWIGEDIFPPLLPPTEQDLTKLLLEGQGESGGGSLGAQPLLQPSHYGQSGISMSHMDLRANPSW
How it was run: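 Inhibition of cytokine-induced STAT phosphorylation was measured in recovered human PBMC after 3 hrs compound exposure and a 10 min IL-4 (1 ng/mL) or IL-6 (10 ng/mL) challenge. MSD detection of pY641-STAT6 or pY705-STAT3 yielded IC50 values.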

[1] = PBMC, Table 1114, read-out: pSTAT6
[2] = PBMC, Table 115, read-out: STAT6

`CC(C)(C)C(=O)OCOP(=O)(Cc1ccc2sc(C(=O)N[C@H]3CCCC[C@H]4CC[C@@H](C(=O)N5C[C@@H](C#N)[C@H](c6ccccc6)C5)N4C3=O)cc2c1)OCOC(=O)C(C)(C)C` (single isomer, unassigned) [Compound 144, ((((2-(((3S,6S,10aS)-3-((3S,4R or 3R,4S)-3-cyano-4-phenylpyrrolidine-1-carbonyl)-5-oxodecahydro-pyrrolo[1,2-a]azocin-6-yl)carbamoyl)benzo[b]thiophen-5-yl)methyl)phosphoryl)bis (oxy))bis (methylene) bis(2,2-dimethylpropanaote)] was tested, and the IC50 (pY705-STAT3 in PBMC; Table 1114, read-out: pSTAT3) was 1000 to 3000 nM and the IC50 (pY641-STAT6 in PBMC; [1]) was 100 to 1000 nM.
Compound `CCCC(=O)SCCOP(=O)(OCCSC(=O)CCC)C(F)(F)c1ccc2sc(C(=O)N[C@H]3CCC[C@H]4CC[C@@H](C(=O)N5CC(c6ncccn6)C5)N4C3=O)cc2c1` [Compound 940, S,S′-((((difluoro(2-(((3S,6S,9aS)-5-oxo-3-(3-(pyrimidin-2-yl)azetidine-1-carbonyl)octahydro-1H-pyrrolo[1,2-a]azepin-6-yl)carbamoyl)benzo [b]thiophen-5-yl)methyl)phosphoryl)bis(oxy))bis(ethane-2,1-diyl)) dibutanethioate] has an IC50 (pY705-STAT3 in PBMC; Table 115, read-out: STAT3) of less than 100 nM and an IC50 (pY641-STAT6 in PBMC; [2]) of 100 to 1000 nM.
In the case of `CC(C)(C)C(=O)SCCOP(=O)(OCCSC(=O)C(C)(C)C)C(F)(F)c1ccc2sc(C(=O)N[C@H]3CCCC[C@H]4CC[C@@H](C(=O)N5C[C@@H](C#N)[C@H](c6ccccc6)C5)N4C3=O)cc2c1` (single isomer, unassigned) [Compound 127, S,S′-(((((2-(((3S,6S,10aS)-3-((3S,4R or 3R,4S)-3-cyano-4-phenylpyrrolidine-1-carbonyl)-5-oxodecahydro-pyrrolo[1,2-a]azocin-6-yl)carbamoyl)benzo[b]thiophen-5-yl)difluoromethyl)phosphoryl)bis(oxy))bis(ethane-2,1-diyl))bis(2,2-dimethylpropane-thioate], the IC50 (pY705-STAT3 in PBMC; Table 1114, read-out: pSTAT3) is reported as 1000 to 3000 nM and the IC50 (pY641-STAT6 in PBMC; [1]) is reported as 100 to 1000 nM.
`CC(C)CC(=O)SCCOP(=O)(OCOC(=O)OC(C)C)C(F)(F)c1ccc2ccc(C(=O)N[C@H]3CCCC[C@H]4CC[C@@H](C(=O)N5C[C@H](c6cc[nH]c(=O)c6)[C@@H](C#N)C5)N4C3=O)cc2c1` (single isomer, unassigned) [Compound 1100] showed an IC50 (pY705-STAT3 in PBMC; Table 115, read-out: STAT3) of 100 to 1000 nM and an IC50 (pY641-STAT6 in PBMC; [2]) of less than 100 nM.
Work on `CC(C)CC(=O)SCCOP(=O)(OCOC(=O)OC(C)C)C(F)(F)c1ccc2sc(C(=O)N[C@H]3CCCC[C@H]4CC[C@@H](C(=O)N5C[C@H](c6ccccc6)[C@@H](C#N)C5)N4C3=O)cc2c1` (single isomer, unassigned) [Compound 166, S-(2-((((2-(((3S,6S,10aS)-3-((3R,4S or 3S,4R)-3-cyano-4-phenylpyrrolidine-1-carbonyl)-5-oxodecahydropyrrolo [1,2-a]azocin-6-yl)carbamoyl)benzo[b]thiophen-5-yl)difluoromethyl) (((isopropoxycarbonyl)oxy)methoxy)phosphoryl)oxy)ethyl)-3-methylbutane thioate] yielded an IC50 (pY705-STAT3 in PBMC; Table 1114, read-out: pSTAT3) of 100 to 1000 nM and an IC50 (pY641-STAT6 in PBMC; [1]) of less than 100 nM.
Compound `CC(C)CC(=O)SCCOP(=O)(OCCSC(=O)CC(C)C)C(F)(F)c1ccc2ccc(C(=O)N[C@H]3CCCC[C@H]4CC[C@@H](C(=O)N5CCC(c6cc[nH]c(=O)c6)C5)N4C3=O)cc2c1` (stereo partly drawn) [Compound 160, S,S′-((((difluoro(7-(((3S,6S,10aS)-5-oxo-3-(3-(2-oxo-1,2-dihydropyridin-4-yl)pyrrolidine-1-carbonyl)decahydropyrrolo [1,2-a]azocin-6-yl)carbamoyl)naphthalen-2-yl)methyl)phosphoryl)bis(oxy))bis(ethane-2,1-diyl)) bis(3-methylbutane thioate)] has an IC50 (pY705-STAT3 in PBMC; Table 1114, read-out: pSTAT3) of less than 100 nM and an IC50 (pY641-STAT6 in PBMC; [1]) of less than 100 nM.
`CC(C)(C)C(=O)OCOP(=O)(OCOC(=O)C(C)(C)C)C(F)(F)c1ccc2sc(C(=O)N[C@H]3CCCC4CC[C@@H](C(=O)N5CC(N6CCOCC6)C5)N4C3=O)cc2c1` (stereo partly drawn) [Compound 249, (((difluoro(2-(((3S,6S)-3-(3-morpholinoazetidine-1-carbonyl)-5-oxooctahydro-1H-pyrrolo[1,2-a]azepin-6-yl)carbamoyl)benzo [b]thiophen-5-yl)methyl)phosphoryl)bis(oxy))bis (methylene) bis(2,2-dimethylpropanoate)] gave an IC50 (pY705-STAT3 in PBMC; Table 115, read-out: STAT3) of less than 100 nM and an IC50 (pY641-STAT6 in PBMC; [2]) of 100 to 1000 nM.
Compound `CCCOC(=O)[C@H](C)NP(=O)(Cc1ccc2sc(C(=O)N[C@H]3CCCC[C@H]4CC[C@@H](C(=O)NCc5cnc6[nH]cnc6c5)N4C3=O)cc2c1)Oc1ccccc1` (stereo partly drawn) [Compound 280, propyl (((2-(((3S,6S,10aS)-3-(((3H-imidazo[4,5-b]pyridin-6-yl)methyl)carbamoyl)-5-oxodecahydropyrrolo [1,2-a]azocin-6-yl)carbamoyl)benzo [b]thiophen-5-yl)methyl)(phenoxy)phosphoryl)-L-alaninate] has an IC50 (pY705-STAT3 in PBMC; Table 115, read-out: STAT3) of less than 100 nM and an IC50 (pY641-STAT6 in PBMC; STAT6, PBMC, Table 115) greater than 3000 nM.
`CC(C)(C)C(=O)OCOP(=O)(OCOC(=O)C(C)(C)C)C(F)(F)c1ccc2sc(C(=O)N[C@H]3CCCCC4CC[C@@H](C(=O)N5C[C@H](C6CCCCC6)[C@@H](C#N)C5)N4C3=O)cc2c1` (relative stereo) [Compound 143, ((((2-(((3S,6S,10aS)-3-(rel-(trans)-3-cyano-4-cyclohexyl-pyrrolidine-1-carbonyl)-5-oxodecahydro-pyrrolo[1,2-a]azocin-6-yl)carbamoyl)benzo[b]thiophen-5-yl)difluoromethyl)phosphoryl)bis (oxy))bis (methylene) bis (2,2-dimethyl-propanaote)] was tested, and the IC50 (pY705-STAT3 in PBMC; Table 1114, read-out: pSTAT3) was 100 to 1000 nM and the IC50 (pY641-STAT6 in PBMC; [1]) was less than 100 nM.
`CCCOC(=O)[C@H](C)NP(=O)(Cc1ccc2sc(C(=O)N[C@H]3CCC[C@H]4CC[C@@H](C(=O)N5CC(c6cnccc6F)C5)N4C3=O)cc2c1)Oc1ccccc1` (stereo partly drawn) [Compound 304, propyl (((2-(((3S,6S,9aS)-3-(3-(4-fluoropyridin-3-yl)azetidine-1-carbonyl)-5-oxooctahydro-1H-pyrrolo[1,2-a]azepin-6-yl)carbamoyl)benzo [b]thiophen-5-yl)methyl)(phenoxy)phosphoryl)-L-alaninate] showed an IC50 (pY705-STAT3 in PBMC; Table 115, read-out: STAT3) of less than 100 nM and an IC50 (pY641-STAT6 in PBMC; STAT6, PBMC, Table 115) greater than 3000 nM.
`CC(C)(C)C(=O)OCOP(=O)(OCOC(=O)C(C)(C)C)[C@@H](F)c1ccc2sc(C(=O)N[C@H]3CCCC[C@H]4CC[C@@H](C(=O)N5C[C@@H](C#N)[C@H](c6ccccc6)C5)N4C3=O)cc2c1` (single isomer, unassigned) [Compound 184, ((((S)- or (R)-(2-(((3S,6S, 10aS)-3-((3S,4R or 3R,4S)-3-cyano-4-phenyl-pyrrolidine-1-carbonyl)-5-oxodeca-hydropyrrolo [1,2-a]azocin-6-yl)carbamoyl)benzo[b]thiophen-5-yl)fluoromethyl)phosphoryl)bis(oxy)) bis(methylene) bis(2,2-dimethyl-propanoate)] showed an IC50 (pY705-STAT3 in PBMC; Table 1114, read-out: pSTAT3) of 100 to 1000 nM and an IC50 (pY641-STAT6 in PBMC; [1]) of less than 100 nM.
With `CC(C)CC(=O)SCCOP(=O)(OCOC(=O)OC1CCOCC1)C(F)(F)c1ccc2sc(C(=O)N[C@H]3CCCC[C@H]4CC[C@@H](C(=O)N5C[C@H](c6cc[nH]c(=O)c6)[C@@H](C#N)C5)N4C3=O)cc2c1` (single isomer, unassigned) [Compound 1085] the IC50 (pY705-STAT3 in PBMC; Table 115, read-out: STAT3) was 100 to 1000 nM and the IC50 (pY641-STAT6 in PBMC; [2]) was less than 100 nM.
Work on `CC(C)(C)C(=O)OCOP(=O)(OCOC(=O)C(C)(C)C)C(F)(F)c1ccc2sc(C(=O)N[C@H]3CCCC[C@H]4CC[C@@H](C(=O)N5CC(C#N)C(c6cc[nH]c(=O)c6)C5)N4C3=O)cc2c1` (mixture of isomers) [Compound 147, ((((2-(((3S,6S,10aS)-3-(rel-trans)-3-cyano-4-(2-oxo-1,2-dihydro-pyridin-4-yl)pyrrolidine-1-carbonyl)-5-oxodecahydro-pyrrolo[1,2-a]azocin-6-yl)carbamoyl)benzo[b]thiophen-5-yl)difluoromethyl)phosphoryl)bis (oxy))bis (methylene) bis(2,2-dimethylpropanoate)] yielded an IC50 (pY705-STAT3 in PBMC; Table 1114, read-out: pSTAT3) of 100 to 1000 nM and an IC50 (pY641-STAT6 in PBMC; [1]) of less than 100 nM.
